# Values quoted from earlier work as cited in patent publication US20110282046A1, “PROCESS FOR PREPARATION OF CIS-NUCLEOSIDE DERIVATIVE” (priority 2009, published 2011).
# Like-named read-outs stand apart in the source and are kept apart here.
# Conditions: for volume of water in which 1 g dissolves: Merck Index Entry no. 8869
volume of water in which 1 g dissolves (boiling water) [mL],volume of water in which 1 g dissolves (cold water) [mL],"solubility in water (water, Merck Index Entry no. 8332) [g in 100 ml water]",SMILES
1,13,,O=C(O)CCC(=O)O [Succinic acid]
,,0.20,O=C(O)c1ccccc1O [salicylic acid]
